The values that follow come from ChEMBL document CHEMBL1201862, “PubChem BioAssay data set” (2004).

Each structure is given as a SMILES string.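 96-well plates; 48 h exposure; 5 concentrations. Endpoints by linear interpolation between flanking doses. Not reached: highest tested concentration assigned. GI50 marks 50% less growth.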 Active and inactive are the calls of the source. Cut-off read from the data, not from the text of the source: active = GI50 up to about 1.1 µM and inactive = higher.

Some test systems named below: 786-0; CAKI-1; CCRF-CEM; HCT-15; HL-60; IGROV-1; K562; NCI-H23; OVCAR-4; RPMI-8226; SF-539; SK-MEL-28; SK-MEL-5; SR; U-251; UACC-257; UO-31; LOX IMVI.
What all share (test): DTP human tumour cell line panel, 48 h

`Cn1c(=O)c2c(nc3n2C(CCl)CO3)n(C)c1=O` (centres undefined): the GI50 (usually the concentration at which growth is held to half of that of the control) in the assay on 786-0 was > 100 µM (inactive); in the assay on CAKI-1, > 100 µM (inactive); in the assay with CCRF-CEM, > 100 µM (inactive); with HCT-15, above 100 µM; in the assay on HL-60, > 100 µM (inactive); in the assay on IGROV-1 it was > 100 µM (inactive). For the same compound, the GI50 with K562, in the assay on NCI-H23, in the assay on OVCAR-4, in the assay with RPMI-8226, in the assay with SF-539 and with SK-MEL-28 was > 100 µM (inactive) throughout. In addition, the GI50 in the assay with SK-MEL-5, in the assay on SR, in the assay on U-251, in the assay on UACC-257 and in the assay on UO-31 was > 100 µM (inactive) each time.
In the case of `C#Cc1ccccc1C(=O)OC`, the GI50 was > 100 µM (inactive) in the assay on CCRF-CEM; above 100 µM in the assay on HCT-15; > 100 µM (inactive) in the assay with HL-60; > 100 µM (inactive) in the assay with IGROV-1; > 100 µM (inactive) in the assay with K562; > 100 µM (inactive) in the assay with LOX IMVI. The GI50 with NCI-H23, in the assay with OVCAR-4, in the assay on RPMI-8226, with SF-539, in the assay with SK-MEL-28 and in the assay with SK-MEL-5 was > 100 µM (inactive) in each case. Further, the GI50 in the assay on SR, with U-251, with UACC-257 and in the assay with UO-31 was > 100 µM (inactive) in each case.
`CCC1=C(C[C@H]2NCCc3cc(OC)c(OC)cc32)C[C@H]2c3cc(OC)c(OC)cc3CCN2C1`: the GI50 is 0.0261 µM (active) in the assay on 786-0; 0.0312 µM (active) with CAKI-1; 0.258 µM in the assay with HCT-15; 0.0247 µM (active) in the assay on HL-60; 0.0445 µM (active) with IGROV-1; 0.0191 µM (active) in the assay with NCI-H23. Further, the GI50 in the assay with OVCAR-4 is 0.0143 µM (active); with RPMI-8226 it was 0.021 µM (active); in the assay on SF-539 it was 0.0326 µM (active); in the assay on SK-MEL-28 it was 0.0365 µM (active); in the assay with SK-MEL-5, 0.0234 µM (active); in the assay on SR it was 0.0101 µM (active). Also, the GI50 in the assay on U-251 was 0.031 µM (active); with UACC-257, 0.0473 µM (active); with UO-31 it was 0.316 µM (active).
`CC12CCCC(C#N)(C1)OC2=O` (centres undefined): the GI50 with 786-0, with CAKI-1, with CCRF-CEM, in the assay on HL-60, with IGROV-1 and in the assay on K562 was > 100 µM (inactive) throughout. Moreover, the GI50 in the assay on NCI-H23, with OVCAR-4, with SF-539, in the assay on SK-MEL-28, in the assay with SK-MEL-5 and with SR was > 100 µM (inactive) each time. For the same compound, the GI50 in the assay with U-251, with UACC-257 and in the assay on UO-31 was > 100 µM (inactive) each time.
With `CC(=O)NC1C(OCc2ccccc2)OC(CO)C(O)C1OC(C)C(=O)N[C@@H](C)C(=O)N[C@H](CCC(=O)OCCNc1c2ccccc2nc2cccc([N+](=O)[O-])c12)C(N)=O` (some centres undefined), the GI50 in the assay on 786-0 is 0.000328 µM (active); in the assay on CAKI-1, 0.00625 µM (active); in the assay with CCRF-CEM, 0.0189 µM (active); in the assay with HCT-15 it was 0.000166 µM; with HL-60, 0.00647 µM (active); with IGROV-1, 0.0215 µM (active). Also, the GI50 is 0.00094 µM (active) with K562; 0.00148 µM (active) with NCI-H23; 0.0038 µM (active) with OVCAR-4; 0.000782 µM (active) with RPMI-8226; 0.00313 µM (active) in the assay on SF-539; 0.00441 µM (active) with SK-MEL-28. Besides, the GI50 is 0.00239 µM (active) in the assay on SK-MEL-5, 3.64e-05 µM (active) with SR, 0.00339 µM (active) in the assay on UACC-257 and 0.00292 µM (active) in the assay with UO-31.
As to `CNC(=S)N(C)C(=S)Nn1c(=O)c(C)nn(C)c1=S`, the GI50 in the assay with 786-0 was > 100 µM (inactive); in the assay with CCRF-CEM, > 100 µM (inactive); in the assay on HCT-15, above 100 µM; with HL-60 it was > 100 µM (inactive); in the assay on IGROV-1, > 100 µM (inactive); with K562, > 100 µM (inactive). The GI50 in the assay with LOX IMVI, in the assay on NCI-H23, in the assay on OVCAR-4, in the assay with RPMI-8226, in the assay with SF-539 and in the assay on SK-MEL-28 was > 100 µM (inactive) in each case. Besides, the GI50 in the assay on SK-MEL-5, with SR, in the assay with U-251 and in the assay with UACC-257 was > 100 µM (inactive) throughout.
`O=c1nc2n(c3nsnc13)CCO2`: the GI50 in the assay on 786-0 was > 100 µM (inactive); in the assay on CAKI-1, > 100 µM (inactive); with CCRF-CEM, > 100 µM (inactive); in the assay with HCT-15, above 100 µM; in the assay on HL-60 it was > 100 µM (inactive); with IGROV-1 it was > 100 µM (inactive). Moreover, the GI50 with K562, with LOX IMVI, in the assay on NCI-H23, in the assay on RPMI-8226, in the assay with SF-539 and with SK-MEL-28 was > 100 µM (inactive) throughout. Besides, the GI50 in the assay on SK-MEL-5, in the assay on SR, in the assay with U-251, in the assay on UACC-257 and in the assay on UO-31 was > 100 µM (inactive) in each case.
For `[O-]c1c2c(nn1-c1ccc(F)cc1)c1ccccc1c[n+]2Cc1ccccc1`, the GI50 in the assay on CAKI-1 is 18.8 µM (inactive); in the assay on CCRF-CEM it was 0.401 µM (active); with HCT-15, 0.581 µM; in the assay with HL-60, 0.327 µM (active); with IGROV-1, 11.1 µM (inactive); in the assay with K562 it was 0.687 µM (active). The GI50 in the assay on NCI-H23 was 16.3 µM (inactive); in the assay on OVCAR-4, 19.3 µM (inactive); in the assay on RPMI-8226, 3.34 µM (inactive); in the assay on SF-539 it was 3.26 µM (inactive); in the assay with SK-MEL-28 it was 15.3 µM (inactive); with SK-MEL-5 it was 3.96 µM (inactive). Besides, the GI50 in the assay on SR was 1.55 µM (inactive); in the assay on U-251 it was 16.4 µM (inactive); with UACC-257, 11.5 µM (inactive); with UO-31 it was 10.2 µM (inactive).
`O=[N+]([O-])c1ccc(-c2ccc(-c3csc(Nc4ccccn4)n3)o2)cc1`: the GI50 was > 100 µM (inactive) in the assay with CAKI-1; 79.8 µM with HCT-15; > 100 µM (inactive) in the assay on HL-60; > 100 µM (inactive) in the assay on IGROV-1; 66.5 µM (inactive) in the assay on K562; 63.4 µM (inactive) in the assay with LOX IMVI. Besides, the GI50 with NCI-H23 is > 10 µM (inactive); with OVCAR-4, 4.76 µM (inactive); in the assay on RPMI-8226, > 100 µM (inactive); in the assay with SK-MEL-28, 95.7 µM (inactive); with SR it was > 100 µM (inactive); in the assay with U-251, 13.8 µM (inactive). Moreover, the GI50 with UACC-257 and in the assay on UO-31 was > 100 µM (inactive) in each case.
Regarding `CC(=O)NNc1nc(C)c(C(=O)/C=C/c2cccc([N+](=O)[O-])c2)s1`, the GI50 with 786-0 was > 100 µM (inactive); in the assay with CAKI-1, > 100 µM (inactive); with CCRF-CEM, > 100 µM (inactive); with HCT-15, above 100 µM; with HL-60, > 100 µM (inactive); with IGROV-1 it was > 100 µM (inactive). The GI50 in the assay with K562, in the assay on LOX IMVI, with NCI-H23, in the assay on RPMI-8226, in the assay on SF-539 and in the assay on SK-MEL-28 was > 100 µM (inactive) in each case. Besides, the GI50 in the assay on SK-MEL-5, in the assay on SR, with U-251, with UACC-257 and in the assay with UO-31 was > 100 µM (inactive) in each case.
`O=C(Nc1ccccc1-c1n[nH]c(S)nc1=O)C(F)(F)F`: the GI50 in the assay on 786-0 was > 100 µM (inactive); with CAKI-1 it was > 100 µM (inactive); in the assay with CCRF-CEM, > 100 µM (inactive); in the assay with HCT-15, above 100 µM; with IGROV-1, > 100 µM (inactive); in the assay with K562, > 100 µM (inactive). Moreover, the GI50 with LOX IMVI, in the assay on NCI-H23, in the assay on OVCAR-4, with SF-539, with SK-MEL-28 and with SK-MEL-5 was > 100 µM (inactive) throughout. The GI50 in the assay on SR, with U-251 and in the assay with UO-31 was > 100 µM (inactive) in each case.
For the compound `COC(=O)c1c(-c2ccccc2)cc2c3cc(-c4ccccc4)c(C(=O)OC)n3c3ccccc3n12`, the GI50 is > 100 µM (inactive) in the assay with 786-0; > 100 µM (inactive) in the assay on CAKI-1; > 100 µM (inactive) with CCRF-CEM; above 100 µM in the assay with HCT-15; > 100 µM (inactive) with HL-60; > 100 µM (inactive) in the assay on IGROV-1. Further, the GI50 in the assay on K562 is > 100 µM (inactive); with LOX IMVI, > 100 µM (inactive); in the assay on NCI-H23, > 100 µM (inactive); in the assay with OVCAR-4, 22.6 µM (inactive); in the assay with RPMI-8226, > 100 µM (inactive); in the assay with SF-539, > 100 µM (inactive). In addition, the GI50 in the assay with SK-MEL-28, in the assay with SK-MEL-5, in the assay with U-251, with UACC-257 and in the assay on UO-31 was > 100 µM (inactive) in each case.
Turning to `Cn1c(=O)c2ccccc2c2nc3ccccc3nc21`, the GI50 is 97.5 µM (inactive) in the assay with 786-0; above 100 µM in the assay with HCT-15; > 100 µM (inactive) in the assay with IGROV-1; > 100 µM (inactive) in the assay with K562; > 100 µM (inactive) with NCI-H23; > 100 µM (inactive) in the assay with RPMI-8226. The GI50 with SF-539 is 92.3 µM (inactive); with SK-MEL-28, > 100 µM (inactive); with SK-MEL-5, > 100 µM (inactive); with SR, > 100 µM (inactive); in the assay on U-251, > 100 µM (inactive); with UACC-257, > 100 µM (inactive). For the same compound, the GI50 in the assay with UO-31 was > 100 µM (inactive).
